{"source": "patent US20230270881A1", "about": "“ONCOGENIC TRIM37 IS A TARGETABLE EPIGENETIC DRIVER OF METASTASIS AND LINKS CHEMORESISTANCE AND METASTATIC FATE IN TRIPLE-NEGATIVE BREAST CANCER” (University of Virginia Patent Foundation, priority 2020, published 2023)", "molecules": {"B1": {"name": "tripartite motif-containing protein 37 (TRIM37) (enzyme)", "chain": "MDEQSVESIAEVFRCFICMEKLRDARLCPHCSKLCCFSCIRRWLTEQRAQCPHCRAPLQLRELVNCRWAEEVTQQLDTLQLCSLTKHEENEKDKCENHHEKLSVFCWTCKKCICHQCALWGGMHGGHTFKPLAEIYEQHVTKVNEEVAKLRRRLMELISLVQEVERNVEAVRNAKDERVREIRNAVEMMIARLDTQLKNKLITLMGQKTSLTQETELLESLLQEVEHQLRSCSKSELISKSSEILMMFQQVHRKPMASFVTTPVPPDFTSELVPSYDSATFVLENFSTLRQRADPVYSPPLQVSGLCWRLKVYPDGNGVVRGYYLSVFLELSAGLPETSKYEYRVEMVHQSCNDPTKNIIREFASDFEVGECWGYNRFFRLDLLANEGYLNPQNDTVILRFQVRSPTFFQKSRDQHWYITQLEAAQTSYIQQINNLKERLTIELSRTQKSRDLSPPDNHLSPQNDDALETRAKKSACSDMLLEGGPTTASVREAKEDEEDEEKIQNEDYHHELSDGDLDLDLVYEDEVNQLDGSSSSASSTATSNTEENDIDEETMSGENDVEYNNMELEEGELMEDAAAAGPAGSSHGYVGSSSRISRRTHLCSAATSSLLDIDPLILIHLLDLKDRSSIENLWGLQPRPPASLLQPTASYSRKDKDQRKQQAMWRVPSDLKMLKRLKTQMAEVRCMKTDVKNTLSEIKSSSAASGDMQTSLFSADQAALAACGTENSGRLQDLGMELLAKSSVANCYIRNSTNKKSNSPKPARSSVAGSLSLRRAVDPGENSRSKGDCQTLSEGSPGSSQSGSRHSSPRALIHGSIGDILPKTEDRQCKALDSDAVVVAVFSGLPAVEKRRKMVTLGANAKGGHLEGLQMTDLENNSETGELQPVLPEGASAAPEEGMSSDSDIECDTENEEQEEHTSVGGFHDSFMVMTQPPDEDTHSSFPDGEQIGPEDLSFNTDENSGR", "notes": "Endogenous TRIM37 in extracts of human TNBC cell lines (MDA MB 468 nuclear extract for co-immunoprecipitation, HCC1806 whole cell extract for sucrose gradient)"}, "B2": {"name": "MRE11 (other, human, UniProt P49959 2-708, looked up)", "chain": "STADALDDENTFKILVATDIHLGFMEKDAVRGNDTFVTLDEILRLAQENEVDFILLGGDLFHENKPSRKTLHTCLELLRKYCMGDRPVQFEILSDQSVNFGFSKFPWVNYQDGNLNISIPVFSIHGNHDDPTGADALCALDILSCAGFVNHFGRSMSVEKIDISPVLLQKGSTKIALYGLGSIPDERLYRMFVNKKVTMLRPKEDENSWFNLFVIHQNRSKHGSTNFIPEQFLDDFIDLVIWGHEHECKIAPTKNEQQLFYISQPGSSVVTSLSPGEAVKKHVGLLRIKGRKMNMHKIPLHTVRQFFMEDIVLANHPDIFNPDNPKVTQAIQSFCLEKIEEMLENAERERLGNSHQPEKPLVRLRVDYSGGFEPFSVLRFSQKFVDRVANPKDIIHFFRHREQKEKTGEEINFGKLITKPSEGTTLRVEDLVKQYFQTAEKNVQLSLLTERGMGEAVQEFVDKEEKDAIEELVKYQLEKTQRFLKERHIDALEDKIDEEVRRFRETRQKNTNEEDDEVREAMTRARALRSQSEESASAFSADDLMSIDLAEQMANDSDDSISAATNKGRGRGRGRRGGRGQNSASRGGSQRGRADTGLETSTRSRNSKTAVSASRNMSIIDAFKSTRQQPSRNVTTKNYSEVIEVDESDVEEDIFPTTSKTDQRWSSTSSSKIMSQSQVSKGVDFESSEDDDDDPFMNTSSLRRNRR", "notes": "Only co-sedimentation with TRIM37 is reported"}}, "key": {"MDA-MB-468 cells": {"tested_on": "MDA-MB-468 cells", "experiment": "Chemical inhibitor treatment with Dox, qRT-PCR of TRIM37", "format": "cell-based, human", "details": "in combination with Dox", "protocol": "Quantitative RT-PCR (qRT-PCR). Total RNA was isolated and reverse transcribed using Superscript II Reverse Transcriptase (Invitrogen). Gene expression was normalized to Gapdh. Controls lacking reverse transcriptase were carried out in parallel to rule out the possibility of DNA contamination. Each sample was analyzed at least two independent times and the results from at least three different biological triplicates are presented.\n(§1) Chemical inhibitor treatment. MDA-MB-468 cells were treated for 24 hrs with 10 µM Dox and small molecule inhibitors at the following concentrations: 10 µM KU000553 (Cayman Chemical), 50 µM AG490 (Cayman Chemical), and 40 µM HLM006474 (Sigma-Aldrich) for 24 hrs."}, "TRIM37 [1]": {"tested_on": "TRIM37", "experiment": "Directed-ChIP assays", "format": "cell-based, human", "details": "MDA MB 468 cells, in combination with Dox", "protocol": "Directed-ChIP assays. ChIP assays were performed as described previously (Bhatnagar et al., 2014) using cell extracts prepared 1 day after Cas9 transduction or inhibitor treatment, and antibodies against BMI1 (Abcam), H2Aub (Cell Signaling Technology), TRIM37 (Abcam), STAT1 (Cell Signaling Technology), STAT3 (Cell Signaling Technology), E2F1 (Cell Signaling Technology), and as a negative control, IgG. Each ChIP experiment was carried out at least three independent times and the results from at least three biological experiments, with technical duplicates, are shown.\nas §1"}, "TRIM37 [2]": {"tested_on": "TRIM37", "experiment": "Immunoblotting of TRIM37 in treated cells", "format": "cell-based, human", "details": "TNBC cells", "protocol": "Immunoblotting. Cell extracts were prepared by lysing cell pellet in RIPA buffer supplemented with 1 mM sodium ortho-vanadate and 10 mM PMSF. To prepare protein extract from mouse tissue, it was homogenized in lysis buffer (1% SDS, 1 mM sodium ortho-vanadate, 10 mM Tris pH 7.4 and protease inhibitor). Immunoblots were probed using antibodies against TRIM37 (Abcam), PARP (Cell Signaling Technology), p21 (Cell Signaling Technology), γ-ph-H2AX (Cell Signaling Technology), RAD51C (Invitrogen), ph-ATM (Cell Signaling Technology), ph-STAT1 (Cell Signaling Technology), ph-STAT3 (Cell Signaling Technology), ph-STAT5 (Cell Signaling Technology), BIM (Abcam), FOLR1 (R&D) and α-tubulin (Invitrogen)."}, "RAD50": {"molecular_target": "T1, RAD50 (human, UniProt Q92878 1-1312)", "T1 construct": "Only co-sedimentation with TRIM37 is reported", "T1 sequence (looked up)": "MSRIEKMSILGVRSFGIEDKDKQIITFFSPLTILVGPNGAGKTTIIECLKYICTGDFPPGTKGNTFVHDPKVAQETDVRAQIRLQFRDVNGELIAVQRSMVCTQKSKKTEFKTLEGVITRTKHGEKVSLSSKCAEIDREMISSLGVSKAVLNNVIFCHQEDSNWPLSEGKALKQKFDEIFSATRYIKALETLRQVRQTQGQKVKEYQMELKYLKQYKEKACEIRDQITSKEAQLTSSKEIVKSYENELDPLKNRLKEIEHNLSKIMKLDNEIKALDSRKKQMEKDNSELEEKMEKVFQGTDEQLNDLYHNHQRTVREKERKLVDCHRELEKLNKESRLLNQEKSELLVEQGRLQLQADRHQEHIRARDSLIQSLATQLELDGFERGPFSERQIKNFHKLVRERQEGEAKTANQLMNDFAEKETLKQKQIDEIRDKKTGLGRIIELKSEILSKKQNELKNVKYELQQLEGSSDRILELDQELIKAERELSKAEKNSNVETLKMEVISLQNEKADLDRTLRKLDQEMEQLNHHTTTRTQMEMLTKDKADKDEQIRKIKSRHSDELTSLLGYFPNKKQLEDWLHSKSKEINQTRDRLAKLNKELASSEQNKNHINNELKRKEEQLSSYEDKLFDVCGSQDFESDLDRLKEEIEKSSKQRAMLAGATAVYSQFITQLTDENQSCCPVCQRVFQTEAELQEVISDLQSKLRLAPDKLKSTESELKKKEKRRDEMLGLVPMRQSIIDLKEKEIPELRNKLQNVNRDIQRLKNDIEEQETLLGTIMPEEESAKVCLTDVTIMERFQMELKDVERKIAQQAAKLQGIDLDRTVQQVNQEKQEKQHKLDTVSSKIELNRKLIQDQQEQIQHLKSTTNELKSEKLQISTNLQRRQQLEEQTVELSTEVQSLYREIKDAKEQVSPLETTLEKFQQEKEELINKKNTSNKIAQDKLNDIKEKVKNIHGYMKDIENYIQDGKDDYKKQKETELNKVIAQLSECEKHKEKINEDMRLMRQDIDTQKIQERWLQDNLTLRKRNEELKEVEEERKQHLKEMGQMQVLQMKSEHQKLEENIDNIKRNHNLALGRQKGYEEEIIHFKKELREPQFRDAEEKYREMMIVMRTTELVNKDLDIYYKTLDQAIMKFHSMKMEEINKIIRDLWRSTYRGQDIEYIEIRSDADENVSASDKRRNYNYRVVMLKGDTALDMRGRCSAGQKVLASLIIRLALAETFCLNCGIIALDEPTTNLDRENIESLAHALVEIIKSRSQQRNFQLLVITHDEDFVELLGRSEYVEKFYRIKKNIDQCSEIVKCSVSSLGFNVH", "experiment": "sucrose gradient sedimentation of HCC1806 whole cell extract, immunoblot of fractions", "protocol": "(§2) Sucrose gradient fractionation. Sucrose gradient sedimentation analysis was performed as described previously (Bhatnagar et al., 2014). Briefly, 10-40% gradients were formed by layering 200 µl NEB1 buffer containing 10%, 20%, 30% or 40% sucrose in a 13 x 51 mm centrifuge tube (Beckman) and allowed to equilibrate at room temperature for 2 hrs. Gradients were chilled, loaded with […] HCC1806 extract (adjusted to a volume of 200 µl) or 200 µl molecular weight markers (Sigma MW-GF-1000), and centrifuged in a Beckman SW 55 Ti rotor at 214,000 g for 14 hrs. Twenty-five fractions of 200 µl were collected. For the markers, 20 µl of each fraction was electrophoresed and Coomassie stained."}, "[3]": {"molecular_target": "B1", "experiment": "sucrose gradient sedimentation of HCC1806 whole cell extract, immunoblot of fractions", "protocol": "as §2"}}}
{"molecule": "N#C/C(=C/c1ccc(O)c(O)c1)C(=O)NCc1ccccc1", "note": "[AG490]", "values": [{"measurement": "TRIM37 upregulation following Dox-treatment (qRT-PCR)", "setting": "MDA-MB-468 cells", "value": "blocks TRIM37 upregulation"}, {"measurement": "Dox-induced STAT1, STAT3, and E2F1 recruitment to TRIM37 (ChIP)", "setting": "TRIM37 [1]", "value": "substantially decreased"}]}
{"molecule": "CCOc1ccc(C(Nc2ccccn2)c2ccc3ccc(C)nc3c2O)cc1C", "note": "(stereo not drawn) [HLM006474]", "values": [{"measurement": "TRIM37 upregulation following Dox-treatment (qRT-PCR)", "setting": "MDA-MB-468 cells", "value": "blocks TRIM37 upregulation"}, {"measurement": "Dox-induced STAT1, STAT3, and E2F1 recruitment to TRIM37 (ChIP)", "setting": "TRIM37 [1]", "value": "substantially decreased"}]}
{"molecule": "O=c1cc(-c2cccc3c2Sc2ccccc2S3)oc(N2CCOCC2)c1", "note": "[KU000553]", "values": [{"measurement": "TRIM37 upregulation following Dox-treatment (qRT-PCR)", "setting": "MDA-MB-468 cells", "value": "blocks TRIM37 upregulation"}]}
{"molecule": "N.N.[Cl][Pt][Cl]", "note": "[cisplatin]", "values": [{"measurement": "TRIM37 expression post-treatment relative to DMSO", "setting": "TRIM37 [2]", "value": "increased TRIM37 expression"}]}
{"molecule": "COc1cccc2c1C(=O)c1c(O)c3c(c(O)c1C2=O)C[C@@](O)(C(C)=O)C[C@@H]3O[C@H]1C[C@H](N)[C@H](O)[C@H](C)O1", "note": "[daunorubicin]", "values": [{"measurement": "TRIM37 expression post-treatment relative to DMSO", "setting": "TRIM37 [2]", "value": "increased TRIM37 expression"}]}
{"molecule": "B1", "values": [{"measurement": "binding result", "setting": "RAD50", "value": "binds"}]}
{"molecule": "B2", "values": [{"measurement": "binding result", "setting": "[3]", "value": "binds"}]}
